PubChem BioAssay AID179 (DTP/NCI, 2004)
pEC50, pIC50: −log10 of the molar value. “And” between values parts separate entries of the source, which are not always exact repeats. Equal entries are not always repeated. The source made the active and inactive calls.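 How the source made its calls: active means compounds giving half or more protection of infected cells from virus-caused growth loss, again on retest; inactive means the rest.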

Tested on: CEM cells HIV-1 protection, formazan growth assay
Assay: NCI AIDS Antiviral Assay
Conditions: for pIC50: measured here: growth of uninfected CEM cells
Summary of the method: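 Category rules: moderately active means at least 50% protection on retest, and confirmed active means 100% protection reproducibly. The underlying data came from a formazan growth assay in HIV-1-infected CEM cells.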

| Compound | pEC50 | pIC50 | outcome |
| --- | --- | --- | --- |
| CCn1c2c(c3ccccc31)C(c1ccccc1)CC1C(=O)N(c3ccccc3)C(=O)C21 (stereo not given) | < 4.93 | < 4.93 |  |
| CCN1CCC(O)(/C=C/c2ccccc2)C(C(=O)/C=C/c2ccccc2)C1 (stereo not given) |  |  | inactive |
| CC(C)(C)OC(=O)[C@@H]1CCC(=S)N1Cc1ccccc1 | < 3.70 | 3.87 |  |
| O=C(O)CC(O)(CC(=O)O)C(=O)O |  |  | inactive |
| CCCCC1N=CNc2c1ccc1c2[nH]c2ccccc21 (stereo not given) | < 4.59 | 5.21 |  |
| Cc1ccc(NC(=O)c2cc(S(=O)(=O)N3CCNNC3=O)c(S)cc2Cl)cc1 | 4.52 | 3.71 |  |
| CCCc1cc(=O)oc2c3c(c4c(c12)OC(C)(C)CC4)OC(C)[C@H](C)[C@@H]3O (stereo not given in full) | 4.83 | 4.82 |  |
| CCCCN(C(=O)c1ccccc1)C1CCC(=O)c2[nH]c3ccccc3c21 (stereo not given) | < 3.70 | 4.77 |  |
| CCCN=C1NC(C)=CSC(Nc2ccccc2)=C1C#N | < 3.70 | < 3.70 |  |
| O=C1/C(=C/c2ccc(OC(=O)c3ccc(Cl)cc3)cc2)CCC/C1=C\c1ccc(OC(=O)c2ccc(Cl)cc2)cc1 | < 4.00 | < 4.00 |  |
| COc1ccc(C(C)=O)cc1CN1CCN(Cc2cc(C(C)=O)ccc2OC)CC1 | < 4.48 | < 4.48 |  |
| NC(=O)NCNC(N)=O | < 3.17 | < 3.17 |  |
| CCNCC1c2ccccc2-c2nc3ccccc3nc2-c2ccccc21 | < 4.22 | 5.08 |  |
| CC(C)C(=O)N1Cc2cc(Cl)cc(Cl)c2OC(=O)c2ccccc21 | < 4.53 | 5.52 |  |
| O=c1scc(-c2ccc(C(F)(F)F)cc2)s1 | < 4.07 | < 4.07 |  |
| Cc1cn(C2CC=C(CO)CC2)c(=O)[nH]c1=O (stereo not given) | < 2.98 | < 2.98 |  |
| O=C(O)CN(CCO)CCN(CC(=O)O)CC(=O)O.[Fe+2] | < 3.70 | < 3.70 |  |
| CC(=O)Nc1ccc(C(=O)N2N=C(C)/C(=C/c3cccc([N+](=O)[O-])c3)C2=O)cc1 | < 4.32 | < 4.32 |  |
| COC(=O)C1=CC2C(=O)c3ccccc3C1(c1ccccc1)N2C1CCCCC1 (stereo not given) | < 3.70 | 4.67 |  |
| C=CCc1cc(OC)c2c(c1)C(OC)CC(c1ccc(OC)c(OC)c1)O2 (stereo not given) | < 3.60 | < 3.60 |  |
| CCOC(=O)/C(C(=S)NCc1ccccc1)=C(/N)N1CCCC1 | < 3.70 | < 3.70 |  |
| CCOC(OCC)c1ccccc1.[C-]#[O+].[C-]#[O+].[C-]#[O+].[Cr] | < 4.70 | 5.69 |  |

| Compound | pEC50 | pIC50 | outcome |
| --- | --- | --- | --- |
| CCN1C(=O)c2cc(=O)[nH]c(O)c2C1C (stereo not given) | < 3.33 | < 3.33 |  |
| CCCCNC(=O)OCC(C)(CCC)COC(N)=O (stereo not given) | < 3.70 | 3.83 |  |
| CCCN(CCC)C1=Nc2ccccc2-n2cnnc2C1 | < 3.70 | 3.75 |  |
| CCOC(=O)N/N=C(/N)c1cccc([N+](=O)[O-])c1 | < 3.70 | < 3.70 |  |
| NC(=Nc1c([N+](=O)[O-])cnc2ccccc12)N1CCOCC1 | < 3.70 | 3.90 |  |
| O=C1N(CO)C2C(N1CO)N(CO)C(=O)N2CO (stereo not given) | < 3.70 | 4.48 and 3.99 |  |
| CC(=O)OCC1OC(N2C(C)=C(C(C)=O)C(c3ccc(Cl)cc3)C(C#N)=C2S)C(OC(C)=O)C(OC(C)=O)C1OC(C)=O (stereo not given) | < 3.70 | 4.53 |  |
| COc1ccc(/C=C2/CCCC/C2=N/O)cc1 | < 3.53 | 3.74 |  |
| O=C(Nc1ccn(C2CCC(COC(c3ccccc3)(c3ccccc3)c3ccccc3)O2)c(=O)n1)c1ccccc1 (stereo not given) | < 3.70 | 5.01 |  |
| COC(=O)c1cc(C#N)[nH]c1-c1cc(Br)cs1 | < 3.70 | 4.93 |  |
| Cc1cc(C)c(P2C(=C(O[Si](C(C)C)(C(C)C)C(C)C)C(C)(C)C)C2(c2ccccc2)c2ccccc2)c(C)c1 (stereo not given) | < 4.00 | < 4.00 |  |
| C/C=C/C=N/N(C(=O)c1cc([N+](=O)[O-])cc([N+](=O)[O-])c1)C1=NC(c2ccccc2)C(c2ccccc2)=NN1 (stereo not given) | < 4.44 | < 4.44 |  |
| CN1C/C(=C\c2cccs2)C2=NC(=S)NC(c3cccs3)C2C1 (stereo not given) | < 3.70 | 4.44 |  |
| CCCCCCCCCCCC(=O)N(C)CCS(=O)(=O)O |  |  | inactive |
| CCCCCCCCCCCSSCCCCCCCCCCC | < 3.70 | < 3.70 |  |
| C=CC(=O)N1C/C(=C\c2ccc(Cl)c(Cl)c2)C(=O)/C(=C/c2ccc(Cl)c(Cl)c2)C1 | < 5.23 | 7.43 |  |
| NCCCCC(NC(=O)C(N)Cc1ccc(O)cn1)C(=O)O (stereo not given) | < 3.70 | < 3.70 |  |
| COC(=O)C1=C(C)N2[C@H](C(=O)O)CS[C@@]2(C)[C@H](C(=O)OC)[C@H]1c1cccc([N+](=O)[O-])c1 | < 3.70 | 3.83 |  |
| CN(C)/C=N\c1ccnc(=O)[nH]1 | < 2.88 | < 2.88 |  |
| COc1cc2c(cc1Oc1c(O)c(OC)cc3c1C(C)N(C)CC3)C(C)N(C)CC2 (stereo not given) | < 3.70 | < 3.70 |  |
| CC1(C(=O)O)CC(C(=O)O)=Nn2c3ccccc3c3cccc1c32 (stereo not given) | < 3.49 | < 3.49 |  |
| Nc1ncnc2c1ncn2C1OC(CSC(F)(F)F)C(O)C1O (stereo not given) | < 3.15 | 3.95 |  |
